Measured values taken from US9770195B2, “Automated scratch detection system and signal processing algorithm for the study of pruritus in animals” (The Regents of the University of California, priority 2012, dated 2017).
Entries after “also recorded” stand apart in the source; their conditions may differ. Where two headings read alike, the source gives them in different places.

What was measured:
[1] = system: Holtzman rats; experiment: SQ 48/80-evoked homolateral scratching in the rat (PMD, Example 2); assay type: in vivo; conditions: diphenhydramine 1 mg/kg IP with SQ 48/80
From the text: Data acquisition is then initiated.
The PMD detects the movement of a non-ferrous metal band placed around one hind paw of the rodent (for the mouse the band weight=0.1 g while for the rat the band weight=0.5 g). There are two distinct bands one for the rat and one for the mouse (see the band in Yaksh et al., 2001). The testing apparatus consists of cylindrical chambers (mouse: 8.5 cm diameter/22.5 cm tall; rat: 15 cm diameter/30 cm tall). Under each cylinder is a pair of circular concentric electromagnetic coils, which serve respectively as antennas for transmission and reception. Outer coil diameters for the mouse and rat are 12 cm and 20 cm, respectively. The transmitter coil assembly is constructed to emit a 5-8 mW, 6-8 kHz, sinusoidal electromagnetic field (Blue Max 800 Precision scan search coil White's Electronics, Inc., OR). The detection principal is that Eddy currents created by the movements of the ferrous and nonferrous metals perturb the EM field. Such perturbations produce an output waveform and are subsequently detected (Yaksh et al., 2001).

[2] = system: C57Bl/6 mice; conditions: mouse; for effect on chloroquine (1 mg/mL) evoked scratching: diphenhydramine 1 mg/kg IP
[3] = system: C57Bl/6 mice; experiment: Pruritogen-evoked hind paw scratching counted by the paw motion detector (PMD) in mice; assay type: in vivo; conditions: mouse; for scratching behavior evoked by the pruritogen: injection to dorsolateral neck, ipsilateral paw, 60 min; for dose response of scratching: histamine 0.111-11.1 g/mL, chloroquine 0.1-2 mg/mL, 48/80 0.125-0.5 mg/mL
From the text: Data acquisition is then initiated. […] The PMD detects the movement of a non-ferrous metal band placed around one hind paw of the rodent (for the mouse the band weight=0.1 g while for the rat the band weight=0.5 g). There are two distinct bands one for the rat and one for the mouse (see the band in Yaksh et al., 2001). The testing apparatus consists of cylindrical chambers (mouse: 8.5 cm diameter/22.5 cm tall; rat: 15 cm diameter/30 cm tall). Under each cylinder is a pair of circular concentric electromagnetic coils, which serve respectively as antennas for transmission and reception. […] The transmitter coil assembly is constructed to emit a 5-8 mW, 6-8 kHz, sinusoidal electromagnetic field (Blue Max 800 Precision scan search coil White's Electronics, Inc., OR). The detection principal is that Eddy currents created by the movements of the ferrous and nonferrous metals perturb the EM field. Such perturbations produce an output waveform and are subsequently detected (Yaksh et al., 2001). The analog signal from the sensing coil assembly is fed into a standard National Instruments based signal acquisition A-D converter system ([…] or PCI-MI0-16Xe-10 National Instruments Corp.) driven into a standard LabView based software (Lab view v.5.1 National Instruments Corporation, Austin, Tex.). The signal is filtered, amplified, and digitized (sampling rate of 1000 Hz, 12-bit resolution). This signal (conditioned signal in FIG. 2) is then entered and passed through a two component-triggering algorithm configured in the Lab view program. In the first phase, the processed signal is sent through an algorithm to establish a scratch movement trigger. In this phase, the processed signal is subjected to a “zero-crossing interval-peak height” analysis based on the signal amplitude in a sliding time window (see Yaksh et al., 2001). The range of voltages (1-0.01 V) over a moving 128-ms interval is configured to produce a continuous output waveform. […] The signal is then smoothed by using a non-weighted moving average filter. The smoothed range waveform is examined in real time by a peak-detection algorithm set to pick out spikes of >500 ms and amplitudes of >0.3 V. Each peak provided a trigger signal, which is represented by a red line on the automated system's display, see FIG. 3. The signal is then processed through a second level algorithm to define bursting. A high frequency scratching burst, which we will now call a microburst, is defined as multiple trigger signals occurring within a specified moving window time frame (e.g. 2 trigger signals within a 1.15 s time frame) without double counting trigger signals. […] Paw movement events meeting the criteria of a scratch microburst are captured and summed at 1-min increments by default (and can be summed from 1 s to 60 min increments). Summed data are stored in Microsoft Excel compatible spreadsheets.

CN(C)CCOC(c1ccccc1)c1ccccc1 [diphenhydramine, Diphenhydramine]
effect on 48/80-evoked scratching [1]: significant reduction in the observed magnitude of scratching
effect on scratching produced by 48/80 ([2]; diphenhydramine 0.1 mg/kg IP, 30 min pretreatment, SQ 48/80 0.5 mg/mL): complete reversal of scratching
effect on chloroquine (1 mg/mL) evoked scratching ([2]; 30 min pretreatment): lower mean microburst count than those treated with chloroquine alone, but this was not statistically significant
effect on chloroquine (1 mg/mL) evoked scratching ([2]; 30 min pretreatment, listed as Diphenhydramine): no statistically significant effect
effect on SQ histamine-evoked scratching ([2]; diphenhydramine, dose not stated): reversed
effect on scratching produced by 48/80 ([2]; higher doses of diphenhydramine (0.3, 1 mg/kg IP)): suppression of behavior as compared to saline treated animals
effect on 48/80-evoked scratching, across doses ([2]; increasing doses of IP diphenhydramine): attenuated in an equally dose dependent fashion; also recorded: reversed

CCN(CC)CCCC(C)Nc1ccnc2cc(Cl)ccc12 (stereo not drawn) [chloroquine]
cumulative macroburst counts, 48/80 vs chloroquine ([3]; 1 hour, SQ 48/80 0.5 mg/mL vs chloroquine 1 mg/mL, N=5, p<0.001): significantly different
scratching behavior evoked by the pruritogen [3]: vigorous scratching; also recorded: significant scratching incidence
average macrobursts ([3]; over 1 hour after SQ 48/80 0.5 mg/mL or chloroquine 1 mg/mL, N=5, FFT transformed): 8.4
dose response of scratching [3]: inverse u shape dose response curve
dose response of scratching ([3]; listed as Chloroquine): inverse U shaped dose response curve; also recorded: inverse u-shaped dose response curve

Cl.Cl.NCCc1c[nH]cn1 [histamine, Histamine dihydrochloride]
scratching behavior evoked by the pruritogen [3]: vigorous scratching
dose response of scratching ([3]; dihydrochloride): robust dose dependent scratching

CCN(CC)CC(=O)Nc1c(C)cccc1C [lidocaine]
effect on histamine-evoked scratching ([2]; SQ lidocaine 2.5% injected into the site 5 min prior to histamine): blocked the scratching behavior
